Molecular target: hBPGM (Homo sapiens (Human), UniProt P07738)
Experiment: BPGM Synthase Assay
Type: biochemical
Details: Table 6 additional results; read-out: huBPGM: synthase Enzyme IC50
Protocol: Example B1. BPGM Synthase Assay
The following materials were used in this assay: deionized water; Bisphosphoglycerate mutase (BPGM; Standard Buffer: 50 mM Tris, 0.01% Tween 20, pH 7.4); BPGM Reaction Buffer (50 mM Tris, 0.01% Tween 20, 3.23 mM KH2PO4, pH 7.4); dithiothreitol (DTT; Stock solution: 100 mM in Standard Buffer); 384-Well Black Assay Plate (Corning, P/N 3575); DMSO; BPGM Stock Solution (500 nM in BPGM Standard Buffer); Glyceraldehyde 3-phosphate dehydrogenase (GAPDH; Stock Solution: 40 U/mL in 20 mM Tris-HCL Buffer with 20% Glycerol, 1 mM EDTA, 1 mM DTT); Glyceraldehyde 3-phosphate (GAP; Stock Solution: 20 mM in BPGM Standard Buffer); 3-PG Stock Solution (500 μM in BPGM Standard Buffer); Nicotinamide adenine dinucleotide (NAD; Stock Solution: 50 mM in BPGM Standard Buffer); Koningic Acid (1 mM Stock in DMSO); Resazurin Stock Solution (10 mM in DMSO); Diaphorase Stock Solution (40 U/mL in BPGM Standard Buffer); DTT Reaction Buffer (1 mM DTT in BPGM Reaction Buffer); Enzyme Solution (5 nM BPGM, 0.4 U/mL GAPDH in DTT Reaction Buffer); GAPDH Solution (0.4 U/mL GAPDH in DTT Reaction Buffer); Substrate Solution (2 mM NAD, 20 μM 3PG, 800 μM GAP in DTT Reaction Buffer); and Resazurin Solution (5 U/mL Diaphorase, 500 μM Resazurin in BPGM Standard Buffer).
To the assay plate was added Enzyme Solution (20 uL) to columns 2-22 and 24 of the assay plate. To columns 1 and 23 was added GAPDH Solution (20 uL). A separate compound plate was prepared at the desired concentrations and all wells were normalized with 5% DMSO. The compound plate was incubated for 30 minutes at RT. Next, the substrate solution (20 μL) was dispensed to all reaction wells and the plate was incubated for 60 minutes at RT. Koningic acid (1 μL) was added and the plate was incubated for 10 minutes at RT. During this time period, the NADH fluorescence was read at ex: 360/em: 460. Next, Resazurin Solution (10 μL) was added to all reaction wells and the plate was incubated for 30 minutes at RT. The resorufin fluorescence was then read at ex:544/em:590.

hBPGM, sequence (P07738 whole entry, looked up): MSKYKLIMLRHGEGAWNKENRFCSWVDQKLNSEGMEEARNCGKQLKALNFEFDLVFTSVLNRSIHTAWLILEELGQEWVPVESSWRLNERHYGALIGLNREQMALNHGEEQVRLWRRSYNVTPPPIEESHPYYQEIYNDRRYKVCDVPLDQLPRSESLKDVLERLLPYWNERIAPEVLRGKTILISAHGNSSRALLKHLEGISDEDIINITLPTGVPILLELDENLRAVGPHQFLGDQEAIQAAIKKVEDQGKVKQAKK

SMILES: Cc1nc(COC(=O)N(C)C)sc1-c1cccc(-c2ccc(C(=O)O)cc2)n1 [Example 64]
- IC50: 0.91 µM

SMILES: Cc1nc(COc2ncccn2)sc1-c1cccc(-c2ccc(C(=O)NCC(=O)N3CCC(C(=O)O)CC3)cc2)n1 [Example 90]
- IC50: > 25 µM

SMILES: Cc1ccc(C#N)c(OCCc2nc(C)c(-c3cccc(-c4ccc(C(=O)O)c(O)c4)c3)s2)n1 [Example 107]
- IC50: 1.9 µM

SMILES: Cc1nc(CNCC(C)(C)C)sc1-c1cccc(-c2ccc(C(=O)O)cc2)c1 [Example 42]
- IC50: > 25 µM

SMILES: Cc1nc(CN2CCOCC2=O)sc1-c1cccc(-c2ccc(C(=O)O)c(O)c2)c1 [Example 261]
- IC50: 20 µM

SMILES: Cc1nc(COc2ccc(F)cn2)sc1-c1cccc(-c2ccc(C(=O)O)c(C(F)F)c2)c1 [Example 29]
- IC50: 1.8 µM

SMILES: Cc1nc(COc2ccc(C(F)(F)F)cn2)sc1-c1cccc(-c2ccc(C(=O)O)cc2)n1 [Example 56]
- IC50: 3.3 µM

SMILES: Cc1nc(COc2ncc(C(F)(F)F)cn2)sc1-c1cccc(-c2ccc(C(=O)O)cc2)n1 [Example 43]
- IC50: 23 µM

SMILES: Cc1nc(CO[C@@H]2CCCOC2)sc1-c1cccc(-c2ccc(C(=O)O)cc2)c1 [Example 47]
- IC50: 0.98 µM

SMILES: Cc1nc(C)c(-c2csc(-c3ccc(C(=O)O)cc3)n2)s1 [Example 291]
- IC50: 3.3 µM

SMILES: Cc1nc(C)c(-c2coc(-c3ccc(C(=O)O)c(O)c3)n2)s1 [Example 271]
- IC50: 8 µM

SMILES: Cc1nc(CCC(N)=O)sc1-c1cccc(-c2ccc(C(=O)O)c(O)c2)c1 [Example 265]
- IC50: 7.8 µM

SMILES: Cc1cc(-c2ccc(C(=O)O)cc2)cc(-c2sc(C)nc2C)c1 [Example 300]
- IC50: 160 µM

SMILES: Cc1nc(COc2ccccn2)sc1-c1cccc(-c2ccc(C(=O)O)cc2)n1 [Example 57]
- IC50: > 25 µM

SMILES: Cc1nc(COc2ncccn2)sc1-c1cccc(-c2ccc(C(=O)O)c(C(F)F)c2)n1 [Example 54]
- IC50: 0.18 µM

SMILES: Cc1nc(C)c(N2CCN(c3ccc(C(=O)O)c(O)c3)C2=O)s1 [Example 339]
- IC50: > 25 µM

SMILES: Cc1nc(C)c(C2CCCN(c3ccc(C(=O)O)c(O)c3)C2)s1 (stereo not drawn) [Example 122]
- IC50: > 250 µM

SMILES: Cc1nc(C)c(-c2cccc(-c3ccc(C(=O)O)cc3)c2F)s1 [Example 297]
- IC50: 28 µM

SMILES: Cc1nc(C)c(-c2cncc(-c3ccc(C(=O)O)c(O)c3)c2)s1 [Example 299]
- IC50: 25 µM

SMILES: Cc1nc(Cn2c(C)ccc(C#N)c2=O)sc1-c1cccc(-c2ccc(C(=O)O)c(O)c2)c1 [Example 295]
- IC50: 0.6 µM

SMILES: COC(=O)NCc1nc(C)c(-c2csc(-c3cc(NC(=O)OC)c(C(=O)O)cc3F)n2)s1 [Example 196]
- IC50: 5.6 µM

SMILES: Cc1nc(COCC2CCCO2)sc1-c1cccc(-c2ccc(C(=O)O)cc2)c1 (stereo not drawn) [Example 46]
- IC50: 1.2 µM

SMILES: Cc1nc(CNC(C)c2cccnc2)sc1-c1csc(-c2cc(O)c(C(=O)O)cc2F)n1 (stereo not drawn) [Example 170]
- IC50: 1.2 µM

SMILES: Cc1nc(CN2CCOCC2)sc1-c1cccc(-c2ccc(C(=O)O)c(O)c2)c1 [Example 296]
- IC50: 3.7 µM

SMILES: Cc1ccc(C#N)c(OCCn2cc(-c3cccc(-c4ccc(C(=O)O)c(O)c4)c3)c(C)n2)n1 [Example 112]
- IC50: 35 µM

SMILES: Cc1nc(COc2ccc(F)cn2)sc1-c1ccn(-c2ccc(C(=O)O)cc2)n1 [Example 18]
- IC50: 0.65 µM

SMILES: Cc1nc(CNC(C)C)sc1-c1csc(-c2cc(O)c(C(=O)O)cc2F)n1 [Example 176]
- IC50: 0.89 µM

SMILES: Cc1ccc(C#N)c(OCCc2cnn(-c3cccc(-c4ccc(C(=O)O)c(O)c4)c3)c2)n1 [Example 303]
- IC50: 17 µM

SMILES: CNC(=O)CCc1nc(C)c(-c2cccc(-c3ccc(C(=O)O)c(O)c3)c2)s1 [Example 264]
- IC50: 7 µM

SMILES: Cc1nc(COc2ncccn2)sc1-c1cccc(-c2cc(C(=O)O)nn2C(C)C)n1 [Example 30]
- IC50: 15 µM

SMILES: Cc1nc(COc2ccccn2)sc1-c1cccc(-c2ccc(C(=O)O)cn2)c1 [Example 69]
- IC50: 5.5 µM

SMILES: Cc1nc(COc2ncccn2)sc1-c1cccc(-c2ccc(C(=O)O)cc2C(C)C)n1 [Example 28]
- IC50: > 25 µM

SMILES: Cc1nc(C(C)C)sc1-c1cccc(-c2ccc(C(=O)O)c(O)c2)c1 [Example 324]
- IC50: 2.3 µM

SMILES: Cc1nc(COc2ccc(F)cn2)sc1-c1ccn(-c2ccc(C(=O)O)c(O)c2)n1 [Example 21]
- IC50: 0.29 µM

SMILES: Cc1nc(Cc2ccc(C(F)(F)F)cc2)sc1-c1cccc(-c2ccc(C(=O)O)c(O)c2)c1 [Example 312]
- IC50: 6.6 µM

SMILES: Cc1nc(Cc2cccc(C#N)c2)sc1-c1cccc(-c2ccc(C(=O)O)c(O)c2)c1 [Example 308]
- IC50: 1 µM

SMILES: Cc1nc(C)c(-c2ccc(C)c(-c3ccc(C(=O)O)cc3)c2)s1 [Example 305]
- IC50: 82 µM

SMILES: Cc1nc(COCC2CCCCO2)sc1-c1cccc(-c2ccc(C(=O)O)cc2)c1 (stereo not drawn) [Example 45]
- IC50: 1.4 µM

SMILES: Cc1ccc(C#N)c(OCc2nc(C)c(-c3cccc(-c4ccc(C(=O)O)c(O)c4)c3)s2)n1 [Example 268]
- IC50: 1.2 µM

SMILES: Cc1nc(Cc2ccccc2F)sc1-c1cccc(-c2ccc(C(=O)O)c(O)c2)c1 [Example 104]
- IC50: 1.5 µM

SMILES: Cc1nc(C)c(NC(=O)Nc2ccc(C(=O)O)c(O)c2)s1 [Example 337]
- IC50: > 25 µM

SMILES: Cc1ccc(C#N)c(OCCn2cc(-c3cccc(-c4ccc(C(=O)O)c(O)c4)c3)cn2)n1 [Example 110]
- IC50: 8.8 µM

SMILES: Cc1nc(CO)sc1-c1cccc(-c2c[nH]c(C(=O)O)c2)n1 [Example 77]
- IC50: > 25 µM

SMILES: Cc1nc(Cn2ccccc2=O)sc1-c1cccc(-c2ccc(C(=O)O)c(O)c2)c1 [Example 290]
- IC50: 2.2 µM

SMILES: Cc1nc(C)c(-c2cccc(-c3ccc(C(=O)O)c(O)c3)n2)s1 [Example 302]
- IC50: 1.2 µM

SMILES: Cc1nc(C)c(-c2csc(-c3ccc(O)c(C(=O)O)c3)n2)s1 [Example 321]
- IC50: 7.3 µM

SMILES: Cc1nc(COc2ccc(F)cn2)sc1-c1cnn(-c2ccc(C(=O)O)cc2)n1 [Example 19]
- IC50: 0.85 µM

SMILES: Cc1nc(C)c(-c2cccc(-c3ccc(C(=O)O)cc3)c2C)s1 [Example 306]
- IC50: > 250 µM

SMILES: Cc1cc(C(=O)O)cc(C)c1-c1cccc(-c2sc(COc3ncccn3)nc2C)n1 [Example 31]
- IC50: > 25 µM

SMILES: Cc1nc(COc2cnn(C(C)(C)C)c2)sc1-c1cccc(-c2ccc(C(=O)O)cc2)n1 [Example 59]
- IC50: 0.97 µM

SMILES: Cc1nc(C)c(-c2ccc(=O)n(-c3ccc(C(=O)O)c(O)c3)c2)s1 [Example 319]
- IC50: > 250 µM

SMILES: Cc1nc(C)c(-c2ccc(O)c(-c3ccc(C(=O)O)cc3)c2)s1 [Example 304]
- IC50: 54 µM

SMILES: Cc1nc(COc2ccccn2)sc1-c1cccc(-c2ccc(C(=O)O)nc2)c1 [Example 58]
- IC50: > 25 µM

SMILES: O=C(O)c1ccc(-c2cccc(N3CCC(COc4ncccn4)CC3)n2)cc1 [Example 24]
- IC50: > 25 µM

SMILES: Cc1nc(COc2ncccn2)sc1-c1cccc(-c2ccc(C(=O)NCC(=O)N3CCC(C(=O)O)C3)cc2)n1 (stereo not drawn) [Example 91]
- IC50: > 25 µM

SMILES: Cc1nc(COc2ncccn2)sc1-c1cccc(-c2cnc(C(=O)O)nc2)n1 [Example 85]
- IC50: > 25 µM

SMILES: Cc1nc(C)c(-c2nsc(-c3cc(O)c(C(=O)O)cc3F)n2)s1 [Example 205]
- IC50: 1.1 µM

SMILES: Cc1nc(COc2ccc(F)cn2)sc1-c1ccc(-c2ccc(C(=O)O)c(O)c2)s1 [Example 341]
- IC50: 4.1 µM

SMILES: Cc1nc(C)c(-c2ccnc(-c3ccc(C(=O)O)c(O)c3)c2)s1 [Example 310]
- IC50: 2 µM

SMILES: Cc1nc(COc2ccc(F)cn2)sc1-c1cccc(-c2ccc(C(=O)O)c(C(F)F)c2)n1 [Example 22]
- IC50: 0.29 µM

SMILES: Cc1ccc(C#N)c(OCC(=O)N/N=C/c2cccc(-c3cc(O)c(C(=O)O)cc3F)c2)n1 [Example 332]
- IC50: 0.45 µM

SMILES: Cc1nc(C)c(-c2ccc(C#N)c(-c3ccc(C(=O)O)c(O)c3)c2)s1 [Example 294]
- IC50: 44 µM

SMILES: COC(=O)NCc1nc(C)c(-c2cc(-c3ccc(C(=O)O)c(O)c3)sn2)s1 [Example 157]
- IC50: 0.8 µM

SMILES: Cc1nc(C)c(-c2nc(-c3cc(O)c(C(=O)O)cc3F)sc2C)s1 [Example 241]
- IC50: 21 µM

SMILES: Cc1ccc(C#N)c(OCCc2ccn(-c3cccc(-c4ccc(C(=O)O)c(O)c4)c3)n2)n1 [Example 311]
- IC50: 21 µM

SMILES: Cc1nc(Cc2ccccc2C(F)(F)F)sc1-c1cccc(-c2ccc(C(=O)O)c(O)c2)c1 [Example 320]
- IC50: 7 µM

Source: patent US20230348450A1, “CARBOXYLIC ACID-CONTAINING COMPOUNDS AS MODULATORS OF BIS-PHOSPHOGLYCERATE MUTASE FOR THE TREATMENT OF SICKLE CELL DISEASE” (Genzyme Corporation, priority 2020, published 2023)
